Measured values taken from patent EP0923292B1, “IMPROVED METHOD FOR SYSTEMIC ADMINISTRATION OF 2,4-DIENOIC ACID-TYPE INSECTICIDES TO TERRESTRIAL MAMMALS” (priority 1996, dated 1998).

What was measured:
[1] = (S)-Methoprene concentration in fat of rat upon in vivo administration (radioassay/TLC); parameters: species or system Sprague-Dawley male rats
Protocol: Sprague-Dawley CD® VAF/PLUS® male rats were purchased from Charles River Breeding Laboratories, Inc., Portage, Michigan, USA. The body weights of the rats averaged 200 g at the time of dose administration. The rats were quarantined for five days before use, except for jugular vein-cannulated rats, to which doses were administered 1 to 3 days after receipt. The rats were divided into three groups for dosage with ^14C-(S)-methoprene: • Group A received a single dose of 10 mg/kg of the ovicide through intravenous injection via the jugular vein. Three rats each were sacrificed at 0.5 hour, 1 hour, 2 hours, 3 hours, 4 hours, 5 hours, 6 hours, and 7 hours after dosing. • Group B received a single dose 10 mg/kg of the ovicide through oral administration by gavage dosing. Three rats each were sacrificed at 1 hour, 2 hours, 3 hours, 4 hours, 5 hours, 6 hours, 7 hours, and 8 hours after dosing. • Group C received a single dose 100 mg/kg of the ovicide through oral administration by gavage dosing. Three rats each were sacrificed at 1 hour, 2 hours, 3 hours, 4 hours, 5 hours, 6 hours, 7 hours, and 8 hours after dosing. After dosing the rats were house individually in cages. Daily room temperature was maintained between 69°C and […] and the relative humidity was between 40% and 70%. All rats had free access to food and fresh tap water.
For analyses of the ovicide in fat, visceral fat was collected from the sacrificed rats. The fat sample from each rat was thoroughly mixed 1:1 with cellulose powder, and homogenized with a few drops of water. A portion (0.5 to 1 g) of each fat sample was extracted with 10 mL of a mixture of hexane/diethyl ether (1:1), which was treated vigorously on a sonicator for four minutes, then vortex mixed for two minutes and centrifuged. This procedure was repeated twice. The extracts were then combined, radioassayed, rotary evaporated, and concentrated under nitrogen for TLC analysis. A small amount of methanol was added to precipitate the fat to improve the TLC separation. Radioassays and TLC analyses were performed in the same manner as for the blood samples.

[2] = Concentration of (S)-methoprene in dog blood following oral administration (HPLC); format: in vivo, dogs; conditions: random-bred, whole blood, 50 mg/kg
Description: Twelve random-bred adult dogs of various sex and medium hair coat were selected based on hair coat, health, and individual habits. The twelve dogs were grouped into two groups of six dogs each. Dog weights ranged from 22.5 kg to 35.0 kg, and the various weights and each sex were represented in each group. The dogs received a measured amount of Science Diet maintenance dog food daily and water was available. The two groups of dogs were housed separately. The dogs of Group 1 were not given any treatments, whereas those of Group 2 were each given 50 mg/kg of technical (S)-methoprene one time only at the start of the study (Day 0).
Blood samples were taken periodically by drawing the samples into 10 cc disposable syringes and transferring them to labeled 5 mL heparinized EDTA vacutainers treated with […] of paraoxon solution at a concentration of 1 x 10^-2 M. The blood samples were frozen until ready for analysis. Hair samples were clipped from the dogs on the same days that blood samples were taken, then placed in labeled freezer jars with aluminum foil seals, and frozen.
To analyze the blood samples, the samples were extracted three times with methyl t-butyl ether, evaporated, reconstituted in 1 mL of methanol, and analyzed by HPLC as in the hair analyses.

COC(C)(C)CCC[C@H](C)C/C=C/C(C)=C/C(=O)OC(C)C [(S)-Methoprene, 1-isopropyl (E,E)-11-methoxy-3,7,11-trimethyl dodecadi-2,4-enoate]
(S)-Methoprene Concentration in Fat ([1]; Group A 10 mg/kg I.V., 0.5 hours, average of three animals): 4.193 ± 1.566 ppm
(S)-Methoprene Concentration in Fat ([1]; Group A 10 mg/kg I.V., 1 hour, average of three animals): 6.936 ± 3.259 ppm
(S)-Methoprene Concentration in Fat ([1]; Group A 10 mg/kg I.V., 2 hours, average of three animals): 5.929 ± 1.197 ppm
(S)-Methoprene Concentration in Fat ([1]; Group A 10 mg/kg I.V., 3 hours, average of three animals): 5.233 ± 0.457 ppm
(S)-Methoprene Concentration in Fat ([1]; Group A 10 mg/kg I.V., 4 hours, average of three animals): 8.179 ± 3.532 ppm
(S)-Methoprene Concentration in Fat ([1]; Group A 10 mg/kg I.V., 5 hours, average of three animals): 7.596 ± 3.990 ppm
(S)-Methoprene Concentration in Fat ([1]; Group A 10 mg/kg I.V., 6 hours, average of three animals): 6.734 ± 2.209 ppm
(S)-Methoprene Concentration in Fat ([1]; Group A 10 mg/kg I.V., 7 hours, average of three animals): 8.077 ± 1.082 ppm
(S)-Methoprene Concentration in Fat ([1]; Group B 10 mg/kg oral, 1 hour, average of three animals): 0.272 ± 0.103 ppm
(S)-Methoprene Concentration in Fat ([1]; Group B 10 mg/kg oral, 2 hours, average of three animals): 1.138 ± 0.388 ppm
(S)-Methoprene Concentration in Fat ([1]; Group B 10 mg/kg oral, 3 hours, average of three animals): 1.715 ± 0.680 ppm
(S)-Methoprene Concentration in Fat ([1]; Group B 10 mg/kg oral, 4 hours, average of three animals): 2.327 ± 1.090 ppm
(S)-Methoprene Concentration in Fat ([1]; Group B 10 mg/kg oral, 5 hours, average of three animals): 2.980 ± 0.657 ppm
(S)-Methoprene Concentration in Fat ([1]; Group B 10 mg/kg oral, 6 hours, average of three animals): 3.369 ± 0.814 ppm
(S)-Methoprene Concentration in Fat ([1]; Group B 10 mg/kg oral, 7 hours, average of three animals): 2.921 ± 1.345 ppm
(S)-Methoprene Concentration in Fat ([1]; Group B 10 mg/kg oral, 8 hours, average of three animals): 2.408 ± 0.702 ppm
(S)-Methoprene Concentration in Fat ([1]; Group C 100 mg/kg oral, 1 hour, average of two animals): 1.060 ± 0.270 ppm
(S)-Methoprene Concentration in Fat ([1]; Group C 100 mg/kg oral, 2 hours, average of three animals): 14.726 ± 3.371 ppm
(S)-Methoprene Concentration in Fat ([1]; Group C 100 mg/kg oral, 3 hours, average of three animals): 22.868 ± 3.322 ppm
(S)-Methoprene Concentration in Fat ([1]; Group C 100 mg/kg oral, 4 hours, average of three animals): 45.316 ± 16.910 ppm
(S)-Methoprene Concentration in Fat ([1]; Group C 100 mg/kg oral, 5 hours, average of three animals): 38.420 ± 2.765 ppm
(S)-Methoprene Concentration in Fat ([1]; Group C 100 mg/kg oral, 6 hours, average of three animals): 41.898 ± 11.568 ppm
(S)-Methoprene Concentration in Fat ([1]; Group C 100 mg/kg oral, 7 hours, average of three animals): 39.393 ± 17.952 ppm
(S)-Methoprene Concentration in Fat ([1]; Group C 100 mg/kg oral, 8 hours, average of three animals): 47.162 ± 20.116 ppm
concentration at 1 day ([2]; Dog #60, oral 50 mg/kg one time on Day 0, day 1): 117 ng/g
concentration at 3 day ([2]; Dog #60, oral 50 mg/kg one time on Day 0, day 3): 36 ng/g
concentration at 1 day ([2]; Dog #98, oral 50 mg/kg one time on Day 0, day 1): 97.2 ng/g
concentration at 1 day ([2]; Dog #528, oral 50 mg/kg one time on Day 0, day 1): 165 ng/g
concentration at 3 day ([2]; Dog #528, oral 50 mg/kg one time on Day 0, day 3): 63.6 ng/g
concentration at 1 day ([2]; Dog #529, oral 50 mg/kg one time on Day 0, day 1): 172 ng/g
concentration at 3 day ([2]; Dog #529, oral 50 mg/kg one time on Day 0, day 3): 52.1 ng/g
concentration at 7 day ([2]; Dog #529, oral 50 mg/kg one time on Day 0, day 7): 55.7 ng/g
concentration at 1 day ([2]; Dog #534, oral 50 mg/kg one time on Day 0, day 1): 146 ng/g
concentration at 3 day ([2]; Dog #534, oral 50 mg/kg one time on Day 0, day 3): 94.2 ng/g
concentration at 5 day ([2]; Dog #534, oral 50 mg/kg one time on Day 0, day 5): 66.8 ng/g
concentration at 1 day ([2]; Dog #535, oral 50 mg/kg one time on Day 0, day 1): 239 ng/g
concentration at 3 day ([2]; Dog #535, oral 50 mg/kg one time on Day 0, day 3): 93.3 ng/g
concentration at 5 day ([2]; Dog #535, oral 50 mg/kg one time on Day 0, day 5): 47.7 ng/g
